Experimental findings from patent publication US20120251551A1, “Substituted (Heteroarylmethyl)thiohydantoins” (BAYER PHARMA AKTIENGESELLSCHAFT, priority 2009, published 2012) are described below.

Test [1] addresses T1, human androgen receptor E709Y mutant (Homo sapiens, UniProt P10275, E710Y).
T1 construct: expressed in transfected cells; host or cells: PC-3 cells, transient transfection with a pSG5-derived plasmid
T1 sequence (P10275 1-920 E710Y): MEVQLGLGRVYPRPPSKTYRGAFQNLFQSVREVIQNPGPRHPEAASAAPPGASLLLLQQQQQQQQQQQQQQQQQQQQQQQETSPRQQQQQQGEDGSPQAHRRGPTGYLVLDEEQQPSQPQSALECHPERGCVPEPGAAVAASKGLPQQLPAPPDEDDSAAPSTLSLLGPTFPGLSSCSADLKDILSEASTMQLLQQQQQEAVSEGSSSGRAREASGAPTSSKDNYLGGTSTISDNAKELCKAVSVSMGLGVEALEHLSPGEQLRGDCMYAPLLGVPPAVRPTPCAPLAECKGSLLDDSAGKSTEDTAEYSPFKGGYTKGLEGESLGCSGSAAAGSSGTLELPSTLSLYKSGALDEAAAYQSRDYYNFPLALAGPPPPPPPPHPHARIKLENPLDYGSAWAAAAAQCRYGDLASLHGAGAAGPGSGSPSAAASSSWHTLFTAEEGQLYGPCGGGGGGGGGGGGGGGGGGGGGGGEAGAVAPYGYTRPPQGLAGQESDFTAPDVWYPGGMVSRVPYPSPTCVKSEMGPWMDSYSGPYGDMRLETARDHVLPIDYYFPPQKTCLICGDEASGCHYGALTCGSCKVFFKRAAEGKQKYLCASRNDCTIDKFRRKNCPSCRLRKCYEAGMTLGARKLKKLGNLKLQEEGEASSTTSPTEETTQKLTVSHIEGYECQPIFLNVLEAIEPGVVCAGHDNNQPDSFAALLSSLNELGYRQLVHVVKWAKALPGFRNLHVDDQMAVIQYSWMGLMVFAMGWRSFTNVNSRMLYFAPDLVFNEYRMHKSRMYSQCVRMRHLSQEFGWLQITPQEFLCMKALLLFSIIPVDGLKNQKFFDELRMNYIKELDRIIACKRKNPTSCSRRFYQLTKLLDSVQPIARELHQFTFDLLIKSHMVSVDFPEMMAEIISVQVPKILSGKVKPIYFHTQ
In words: Cell-based transactivation assay for human androgen receptor mutant E709Y.
Protocol: Cell-Based Transactivation Assay for Human Androgen Receptor Mutant E709Y
PC-3 cells (Kaighn et al., Invest. Urol. 17:16-23, 1979) were grown in 5% charcoal-stripped medium and seeded at a concentration of 10000 cells per well in a 96-well plate. They were transiently transfected with a pSG5-derived plasmid (#216201 from Stratagene, La Jolla, Calif., USA) coding for the human androgen receptor E709Y mutant (Georget et al., Molecular Endocrinology, 20(4): 724-734, 2006) and an MMTV-Luciferase reporter plasmid based on pGL4.14 14 (#E6691, Promega Corporation, Madison, Wis., USA). The compound to be tested was added at a concentration range varying from 1×10^−9 to 1×10^−6 M together with 1×10^−10 R1881. After 24 h incubation at 37° C. in a 5% CO2 atmosphere, 100 μl of Steady Glo Lysis and Detection reagent (Steady Glo Luciferase assay system E2550 from Promega Corporation. Madison, Wis., USA) were added. Antagonistic activity was determined by measuring Luciferase activity in a Victor 3 Luminometer (PerkinElmer, Waltham, Mass., USA) using the Steady Glo Luciferase Assay (E2550, Promega). IC50 values were calculated for anti-androgenic activity.

The next test deals with VCaP cells. In words: Proliferation assay with VCaP cells. The test is classed as cell-based. As to conditions: Homo sapiens, 168 h, R1881 (1×10^−10) stimulated growth. As for the experimental part: Proliferation Assay with VCaP Cells
VCaP cells ((Korenchuk et al., In Vivo 15: 163-168, 2001)) were seeded at 16 000 cells/well in 96-well plates in DMEM (F0445, Biochrom AG, Berlin, Germany) with phenol red supplemented with 10% charcoal-stripped serum. After 1 day, the cells were treated with R1881 (1×10^−10) and compound (day 0). Cell number was determined by Alamar Blue (DAL1100, Invitrogen, Life Technologies, Lohne, Germany) staining (2.5 h) at day 0 and day 7. Fluorescence was determined in Victor3 (Excitation 530 nm; emission 590 nm). Stimulated growth was defined as the signal measured at day 7 for cells treated only with R1881. Basal level was defined as the signal measured at day 7 for cells grown without R1881.

In test [2] the target is T2, wild-type human androgen receptor (Homo sapiens, UniProt P10275).
T2 construct: expressed in transfected cells
T2 sequence (P10275 1-920): T1 sequence (P10275 1-920 E710Y) with Y710E
The test can be described thus: Cell-based transactivation assay for wild-type human androgen receptor (PC-3 cells, MMTV-luciferase reporter). (A reporter such as luciferase makes a cellular process visible.)

The target of test [3] is T3, human androgen receptor W741L mutant (Homo sapiens, UniProt P10275, W742L).
T3 construct: expressed in transfected cells; host or cells: PC-3 cells, transient transfection with a pSG5-derived plasmid
T3 sequence (P10275 1-920 W742L): T1 sequence (P10275 1-920 E710Y) with Y710E, W742L
In words: Cell-based transactivation assay for human androgen receptor mutant W741L.

For a further test, the system named is LNCaP cells. In words: Proliferation assay with LNCaP cells. Particulars: Homo sapiens, 168 h, R1881 (1×10^−10) stimulated growth, day 7, read-out: inhibition IC50 (LNCaP). The test is classed as cell-based. Here is the method: Proliferation Assay with LNCaP Cells
LNCaP cells (Horoszewicz et al., in “Models for Prostate Cancer” (ed. G. P. Murphy), Alan R. Liss, New York 1981, p. 115-132; Horoszewicz et al., Cancer Res. 43:1809-1818, 1983) were seeded at 2000 cells/well in 96-well plates in RPMI (F1235, Biochrom AG, Berlin, Germany) without phenol red supplemented with 5% charcoal-stripped serum. After 3 days, the cells were treated with R1881) (1×10^−10) and compound (day 0). Cell number was determined by Alamar Blue (DAL1100, Invitrogen, Life Technologies, Lohne, Germany) staining (2.5 h) at day 0 and day 7. Fluorescence was determined in Victor3 (Excitation 530 nm; emission 590 nm). Stimulated growth was defined as the signal measured at day 7 for cells treated only with R1881. Basal level was defined as the signal measured at day 7 for cells grown without R1881.

Where [4] appears, read: day 7, read-out: Antiproliferative activity VCaP IC50.
[5] abbreviates: day 7, read-out: inhibition IC50 (VCaP).

Substitutions are numbered along the chain they refer to. pEC50, pIC50: −log10 of the molar value. Where two headings read alike, the source gives them in different places.

Broadly, the pIC50 is the negative decadic logarithm of the IC50, by convention in mol/L. Usually pEC50 stands for −log10 of the EC50, conventionally taken in molar units. The low end stands for a large EC50, the high end for a small EC50.

`COc1ccc(CN2C(=S)N(c3ccc(C#N)c(C(F)(F)F)c3)C(=O)C2(C)C)cc1` [Comparative data^4]: the pIC50 was 7.10 in test [1], 6.07 with VCaP cells (setting [4]) and 6.42 in test [3]. The pEC50 in test [2] was 5.17.

For `CC1(C)C(=O)N(c2ccc(C#N)c(C(F)(F)F)c2)C(=S)N1Cc1ccc(OCCN2CCOCC2)nc1` [Example 3, 4-[4,4-Dimethyl-3-({6-[2-(morpholin-4-yl)ethoxy]pyridin-3-yl}methyl)-5-oxo-2-thioxoimidazolidin-1-yl]-2-(trifluoromethyl)benzonitrile], the pIC50 in test [1] is 7.10; in the test on LNCaP cells it was 6.90; in the test with VCaP cells (setting [4]), 6.75; in test [3] it was 6.93. This compound also showed a pEC50 in test [2] below 5.00.

Take `CC1(C)C(=O)N(c2ccc(C#N)c(C(F)(F)F)c2)C(=S)N1Cc1ccc(OC2CCOCC2)nc1` [Example 5, 4-(4,4-Dimethyl-5-oxo-3-{[6-(tetrahydro-2H-pyran-4-yloxy)pyridin-3-yl]methyl}-2-thioxoimidazolidin-1-yl)-2-(trifluoromethyl)benzonitrile]: the pIC50 in test [1] is 7.35; with LNCaP cells, 6.70; in test [3], 7.30. This compound also had a negative logarithm of the EC50 (pEC50) in test [2] below 5.00.

`CC1(C)C(=O)N(c2ccc(C#N)c(C(F)(F)F)c2)C(=S)N1Cc1cnc(N2CCOCC2)nc1N` [Example 6, 4-(3-{[4-Amino-2-(morpholin-4-yl)pyrimidin-5-yl]methyl}-4,4-dimethyl-5-oxo-2-thioxoimidazolidin-1-yl)-2-(trifluoromethyl)benzonitrile]: the figures for the pIC50 in test [1] and in test [3] were 7.71 and 7.03, respectively. Further, in test [2], the pEC50 was 5.30.

Consider `CC1CN(c2ccc(CN3C(=S)N(c4ccc(C#N)c(C(F)(F)F)c4)C(=O)C3(C)C)cn2)CCO1` (stereo not shown) [Example 7, 4-(4,4-Dimethyl-3-{[6-(2-methylmorpholin-4-yl)pyridin-3-yl]methyl}-5-oxo-2-thioxoimidazolidin-1-yl)-2-(trifluoromethyl)benzonitrile], for which the pIC50 in test [1] was 7.65; with LNCaP cells, 6.93; with VCaP cells (setting [4]), 6.97; in the test on VCaP cells (setting [5]), 6.97; in test [3], 7.31. Moreover, the negative-log EC50 (pEC50) in test [2] was below 5.00.

As to `COc1ccc(CN2C(=S)N(c3ccc(C#N)c(C(F)(F)F)c3)C(=O)C2(C)C)cn1` [Example 8, 4-{3-[(6-Methoxypyridin-3-yl)methyl]-4,4-dimethyl-5-oxo-2-thioxoimidazolidin-1-yl}-2-(trifluoromethyl)benzonitrile], the pIC50 in test [1] was 8.04; in the test on LNCaP cells it was 6.92; in the test on VCaP cells (setting [4]) it was 7.03; in the test on VCaP cells (setting [5]), 7.04; in test [3], 7.31. In test [2], this compound gave a pEC50 of 5.05.

Turning to `Cc1nccn1-c1ccc(CN2C(=S)N(c3ccc(C#N)c(C(F)(F)F)c3)C(=O)C2(C)C)cn1` [Example 15, 4-(4,4-Dimethyl-3-{[6-(2-methyl-1H-imidazol-1-yl)pyridin-3-yl]methyl}-5-oxo-2-thioxoimidazolidin-1-yl)-2-(trifluoromethyl)benzonitrile], the pIC50 was 7.52 in test [1], 6.94 in the test with LNCaP cells, 6.60 in the test on VCaP cells (setting [4]) and 7.88 in test [3]. In addition, the pEC50 in test [2] was below 5.00.

Take `CC1(C)CC(=O)N(c2ccc(CN3C(=S)N(c4ccc(C#N)c(C(F)(F)F)c4)C(=O)C3(C)C)cn2)C1` [Example 16, 4-(3-{[6-(4,4-Dimethyl-2-oxopyrrolidin-1-yl)pyridin-3-yl]methyl}-4,4-dimethyl-5-oxo-2-thioxoimidazolidin-1-yl)-2-(trifluoromethyl)benzonitrile]: the pIC50 in test [1] was 6.84; in the test with LNCaP cells, 6.92; in test [3], 7.11. Further, the pEC50 in test [2] was below 5.00.

As for `CN=S1(=O)CCN(c2ccc(CN3C(=S)N(c4ccc(C#N)c(C(F)(F)F)c4)C(=O)C3(C)C)cn2)CC1` [Example 22, 4-[4,4-Dimethyl-3-({6-[1-(methylimino)-1-oxido-1λ^6-thiomorpholin-4-yl]pyridin-3-yl}methyl)-5-oxo-2-thioxoimidazolidin-1-yl]-2-(trifluoromethyl)benzonitrile], the pIC50 in the test with LNCaP cells was 6.87; in test [3], 7.24. Also, the pEC50 in test [2] is below 5.00.
